Legend:
[1] = tested on: body fat of overweight subjects; assay: Resistance exercise training study, body composition and body fat; format: in vivo, human; settings: 2 g per day, n=7 per treatment group, beginning vs conclusion of study (FIG. 2)
Description: A randomized, double-blind, cross over design, resistance exercise training study was preformed to assess the impact of administration of the instantly disclosed compositions on subject body composition and body fat. Subjects were “overweight”, BMI of 26.8 in the leucine group, 25.0 in the dileucine group. Treatment groups received either leucine (2 g per day), dileucine (2 g per day), or placebo (n=7, per treatment group). Body measurements were taken at the beginning and conclusion of the study.

[2] = tested on: body weight of male Swiss albino mice; assay: Weight management study in treadmill-trained mice; format: in vivo; settings: daily treatment for 28 days
Procedure: Animal studies were conducted to investigate the effects of test substances (treatment) on weight management in male Swiss albino mice. Animals were divided into 17 groups with each group consisting of 8 animals. The test groups were treated with the test substances daily for 28 days. All the animals were subjected to treadmill training for 5 days a week for 28 days. Measurements were taken on day 0 and 28th day.

| Structure (SMILES) | body fat following resistance training [1] | Weight in grams ([2]; treadmill training 5 days a week, dileucine 411 mg/kg, partner doses per Table 1) | Percent Difference from Placebo ([2]; weight vs control group, treadmill training, doses per Table 1) |
| --- | --- | --- | --- |
| CC(C)C[C@H](N)C(=O)O [leucine] | modest increases in body fat | – | – |
| CC(C)C[C@H](NC(=O)[C@@H](N)CC(C)C)C(=O)O [Dileucine, L-Leucyl-L-leucine] | decreased body fat | 33.23 grams | −2.69% |

From patent US20230113817A1, “DILEUCINE COMPOSITIONS AND METHODS OF USE THEREOF FOR FAT LOSS” (Ingenious Ingredients, LP, priority 2021, published 2023)
